Patent US11066414B2, “Cot modulators and methods of use thereof” (Gilead Sciences, Inc., priority 2015, dated 2021)
Read-outs that look alike come from different tables or passages of the source.

Columns and labels:
TNFα = assay: Cot Monocyte TNFα Cell Based Assay; conditions: Homo sapiens, Monocyte
Human Cot = Human Cot (Homo sapiens (Human), UniProt P41279); assay: High Throughput Cot Biochemical Assay; conditions: IC50 HTRF
[1] = read-out: EC50 TNF, LPS-stimulated human monocytes, TNFα TR-FRET
[2] = Cot HTRF (TR-FRET KinEASE) biochemical assay, 400 μM ATP
[3] = read-out: EC50 TNF, LPS-stimulated human monocytes, TNFα
[4] = Cot HTRF (TR-FRET) biochemical assay

Sequence of Human Cot (P41279 30-397): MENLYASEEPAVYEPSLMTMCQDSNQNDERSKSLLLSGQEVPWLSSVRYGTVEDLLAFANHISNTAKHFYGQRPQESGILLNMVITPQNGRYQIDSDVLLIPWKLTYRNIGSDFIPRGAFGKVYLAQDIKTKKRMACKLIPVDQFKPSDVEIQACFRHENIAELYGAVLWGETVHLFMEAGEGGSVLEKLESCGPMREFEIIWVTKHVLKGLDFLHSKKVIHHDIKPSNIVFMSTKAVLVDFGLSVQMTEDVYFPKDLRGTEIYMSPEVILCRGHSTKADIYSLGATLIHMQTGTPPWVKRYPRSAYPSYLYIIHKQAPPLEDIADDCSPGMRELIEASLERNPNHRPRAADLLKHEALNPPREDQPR

`CCC(C)n1cc([C@@H](Nc2cc(Cl)c3ncc(C#N)c(NCC(C)(C)C)c3c2)c2cccc3c(=O)n(C)ccc23)nn1` (stereo partly drawn) [Example 801, 6-(((1 S)-(1-(sec-butyl)-1H-1,2,3-triazol-4-yl)(2-methyl-1-oxo-1,2-dihydroisoquinolin-5-yl)methyl)amino)-8-chloro-4-(neopentylamino)quinoline-3-carbonitrile] gave an EC50 (TNFα; [1]) of 31 nM and an IC50 (Human Cot; [2]) of 3 nM.

In the case of `[2H][C@](Nc1cc(Cl)c2ncc(C#N)c(NCC(C)(C)C)c2c1)(c1cccnc1)c1cn(C2CC2)nn1` [Example 141, (S)-8-chloro-6-(((1-cyclopropyl-1H-1,2,3-triazol-4-yl)(pyridin-3-yl)methyl-d)amino)-4-(neopentylamino)quinoline-3-carbonitrile], the EC50 (TNFα; [3]) is reported as 121 nM and the IC50 (Human Cot; [4]) is reported as 2 nM.

In the case of `Cc1nc(F)ccc1[C@H](Nc1cc(Cl)c2ncc(C#N)c(NCC(C)(C)C)c2c1)c1cn(C2(CO)CC2)nn1` [Example 482, (S)-8-chloro-6-(((6-fluoro-2-methylpyridin-3-yl)(1-(1-(hydroxymethyl)cyclopropyl)-1H-1,2,3-triazol-4-yl)methyl)amino)-4-(neopentylamino)quinoline-3-carbonitrile], the EC50 (TNFα; [3]) is reported as 86 nM and the IC50 (Human Cot; [4]) is reported as 3 nM.

`CC(C)(C)CNc1c(C#N)cnc2c(C#N)cc(N[C@H](c3cn(C45CC(C4)C5)nn3)c3cccc4c(=O)[nH]ccc34)cc12` [Example 888, (S)-6-(((1-(bicyclo[1.1.1]pentan-1-yl)-1H-1,2,3-triazol-4-yl)(1-oxo-1,2-dihydroisoquinolin-5-yl)methyl)amino)-4-(neopentylamino)quinoline-3,8-dicarbonitrile] gave an EC50 (TNFα; [1]) of 165 nM and an IC50 (Human Cot; [2]) of 2 nM.

`Cc1nc(F)ccc1[C@@H](Nc1cc(Cl)c2ncc(C#N)c(NCC(C)(C)C)c2c1)c1cn(C2(C(F)F)CC2)nn1` [Example 509, (R)-8-chloro-6-(((1-(1-(difluoromethyl)-cyclopropyl)-1H-1,2,3-triazol-4-yl)(6-fluoro-2-methylpyridin-3-yl)methyl)amino)-4-(neopentylamino)quinoline-3-carbonitrile] was tested, and the EC50 (TNFα; [3]) was 1000 nM and the IC50 (Human Cot; [4]) was 267 nM.

Compound `Cc1nc(F)ccc1[C@H](Nc1cc(C#N)c2ncc(C#N)c(NCC(C)(C)C)c2c1)c1cn([C@@H](C)CF)nn1` [Example 623, 6-(((S)-(6-fluoro-2-methylpyridin-3-yl)(1-((S)-1-fluoropropan-2-yl)-1H-1,2,3-triazol-4-yl)methyl)amino)-4-(neopentylamino)quinoline-3,8-dicarbonitrile] has an EC50 (TNFα; [3]) of 27 nM and an IC50 (Human Cot; [4]) of 1 nM.

`Cc1nc(F)ccc1[C@H](Nc1cc(Cl)c2ncc(C#N)c(NCC(C)(C)C(F)(F)F)c2c1)c1cn(C23CC(C2)C3)nn1` [Example 719, (S)-6-(((1-(bicyclo[1.1.1]pentan-1-yl)-1H-1,2,3-triazol-4-yl)(6-fluoro-2-methylpyridin-3-yl)methyl)amino)-8-chloro-4-((3,3,3-trifluoro-2,2-dimethylpropyl)amino)quinoline-3-carbonitrile] gave an EC50 (TNFα; [3]) of 24 nM and an IC50 (Human Cot; [4]) of 2 nM.

With `[2H]C([2H])([2H])C([2H])([2H])[C@H](Nc1c(C#N)cnc2c(Cl)cc(N[C@@]([2H])(c3ccc(F)nc3)c3cn(C4CC4)nn3)cc12)c1ccccc1` [Example 107, 8-chloro-6-(((S)-(1-cyclopropyl-1H-1,2,3-triazol-4-yl)(6-fluoropyridin-3-yl)methyl-d)amino)-4-(((S)-1-phenyl-propyl-2,2,3,3,3-d5)amino)quinoline-3-carbonitrile] the EC50 (TNFα; [3]) was > 10000 nM and the IC50 (Human Cot; [4]) was 182 nM.

In the case of `CCN1CCC(n2cc([C@@H](Nc3cc(Cl)c4ncc(C#N)c(Nc5ccc(F)c(Cl)c5)c4c3)c3cc(C#N)cs3)nn2)CC1` [Example 372, (R)-8-chloro-4-((3-chloro-4-fluorophenyl)amino)-6-(((4-cyanothiophen-2-yl)(1-(1-ethylpiperidin-4-yl)-1H-1,2,3-triazol-4-yl)methyl)-amino)quinoline-3-carbonitrile], the EC50 (TNFα; [3]) is reported as 81 nM and the IC50 (Human Cot; [4]) is reported as 2 nM.
